# Source: article PMC7893915, “Assessing cross-resistance within the pyrethroids in terms of their interactions with key cytochrome P450 enzymes and resistance in vector populations” (Parasites & Vectors, 2021)
# Experiments:
# CYP6Z3 = biological target: T1, CYP6Z3 (Anopheles gambiae, UniProt Q86LT6, H411Y/S209G/W396L); assay: Inhibition screening of pyrethroids, diethoxyfluorescein, CYP6Z3; type: biochemical
# T1 sequence (Q86LT6 1-492 S209G/W396L/H411Y): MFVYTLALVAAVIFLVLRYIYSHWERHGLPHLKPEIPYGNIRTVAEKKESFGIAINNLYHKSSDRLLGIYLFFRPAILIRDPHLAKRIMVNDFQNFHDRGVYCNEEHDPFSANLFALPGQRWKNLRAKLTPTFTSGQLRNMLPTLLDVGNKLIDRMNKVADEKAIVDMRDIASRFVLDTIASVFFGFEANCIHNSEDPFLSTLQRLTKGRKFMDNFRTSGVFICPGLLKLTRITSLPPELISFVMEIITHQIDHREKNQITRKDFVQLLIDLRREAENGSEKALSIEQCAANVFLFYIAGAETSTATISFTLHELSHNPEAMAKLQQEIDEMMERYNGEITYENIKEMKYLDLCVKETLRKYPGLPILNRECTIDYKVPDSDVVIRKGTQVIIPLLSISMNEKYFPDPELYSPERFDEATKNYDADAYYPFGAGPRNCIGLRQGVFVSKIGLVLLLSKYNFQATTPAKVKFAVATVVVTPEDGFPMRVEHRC
# T1 sequence (Q86QH5 1-679 partner): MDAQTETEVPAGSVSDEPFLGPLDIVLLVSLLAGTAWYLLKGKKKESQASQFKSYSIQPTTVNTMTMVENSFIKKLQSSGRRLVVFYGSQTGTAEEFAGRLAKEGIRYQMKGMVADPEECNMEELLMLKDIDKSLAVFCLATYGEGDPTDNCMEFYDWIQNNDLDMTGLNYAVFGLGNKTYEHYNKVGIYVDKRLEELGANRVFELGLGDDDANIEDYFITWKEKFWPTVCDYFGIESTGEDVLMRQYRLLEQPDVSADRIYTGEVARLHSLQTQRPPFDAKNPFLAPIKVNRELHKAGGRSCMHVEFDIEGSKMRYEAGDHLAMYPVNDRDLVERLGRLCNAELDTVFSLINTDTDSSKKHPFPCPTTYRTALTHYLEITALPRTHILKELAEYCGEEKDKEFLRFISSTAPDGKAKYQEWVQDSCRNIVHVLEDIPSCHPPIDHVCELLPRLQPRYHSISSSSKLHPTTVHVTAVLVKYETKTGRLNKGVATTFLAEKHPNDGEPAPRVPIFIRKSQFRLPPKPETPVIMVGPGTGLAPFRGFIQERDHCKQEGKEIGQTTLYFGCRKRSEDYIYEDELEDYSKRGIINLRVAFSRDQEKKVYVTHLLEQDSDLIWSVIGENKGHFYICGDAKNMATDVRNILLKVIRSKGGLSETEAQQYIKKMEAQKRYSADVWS
# Text: Cytochrome P450 inhibition assays using fluorogenic probe substrates have become commonplace in drug discovery screening cascades and are a rapid method of screening for insecticide interactions with mosquito P450s to predict insecticide binding, metabolism, cross-resistance and synergism. In this study, the half maximal inhibitory concentration (IC50), which provides a value for inhibition of each P450 by each pyrethroid (also referred to as ‘binding affinity’), and the percentage depletion, which gives a value for metabolism of each pyrethroid by each P450 (also referred to as vulnerability to metabolic attack), were both included as parameters to establish a P450s structural activity relationship model. This model was used to understand both the chemistry of the pyrethroids and the interaction with mosquito P450s that function as monooxygenases in metabolic resistance, to predict cross-resistance liabilities in vivo. […] A low percentage depletion indicates low metabolism of the pyrethroid, which means that it may be less vulnerable to resistance mediated by P450s.
# In addition, inhibition activity data for these pyrethroids exposed to CYP6Z3 from the An. gambiae Kisumu strain were also generated (Additional file 1).
# 1. Preparation of An. gambiae CYP6Z3 and cloning
# Total RNA was extracted with Arcturus PicoPure Kit (Applied Biosystems, USA) from ten adult An. gambiae mosquitoes from the Kisumu strain [1]. Complementary DNA was prepared using Superscript III (Invitrogen) with an oligo (dT)20 primer and used as a template for amplifying full -length AgCyp6z3 with KOD DNA polymerase (Merk Chemicals) . The gene-specific primers used in these high -fidelity PCRs (Table S1) were designed according to the reference An. gambiae PEST CYP6Z3 genome sequence (Accession number AY193727) The PCR product was ligated into pGEM T-easy vector (Promega) and sequenced on both strands. Consistent with the high frequency of polymorphism in An. gambiae P450s [2](Martin Nature Ref) there were 36 single nucleotide polymorphism (SNPs) compared with the reference sequence, of which three produced amino acid changes, S209G, W396L, and H411Y. For expression, the ompA leader sequence (ompA) was engineered onto the amino - terminus of the AgCyp6z3 gene to direct the P450 into the E. coli […] during expression as previously described. The ompA-leader was fused to AgCyp6z3 cDNA in frame with AgCyp6z3 initiation codon by fusion PCR using High fidelity Phusion polymerase (Scientific). The ompA AgCyp6z3 fusion was flanked at the 5′ and 3′ ends with NdeI and EcoR1, respectively for ligation into NdeI/EcoRI linearised pB13 (pCWori+).
# Table S1. Primers used for amplification of CYP6Z3 and in vitro functional characterisation […]
# ompA+2 Forward […]
# ompA+2 CYP6Z3 fusion […]
# 2. Preparation of membranes expressing P450 and AgCPR
# To express functional P450, AgCyp6z3 cloned into pB13 plasmid was co-transformed into E. coli JM109 cells with An. gambiae NADPH-cytochrome P450 reductase (AgCPR-pACYC). The P450 and the AgCPR were previously fused with ompA and pelB leader sequences respectively to direct the expressed proteins to the inner bacterial periplasm in order to form functional monooxygenase complex. For P450 production, 200 mL E. coli cultures in Terrific Broth were incubated at 21°C with shaking at 120 RPM for 18–24 h after induction with 1 mM IPTG. Following expression, E. coli membranes containing CYP6Z3 were isolated and P450 and AgCPR content measured as previously described. Samples were stored in aliquots of 100 µL at −80°C. An. gambiae cytochrome b5 was prepared as described previously to supplement enzyme reactions at an 8:1 M ratio, b5: P450 [4].
# 3. Inhibition screening of pyrethroids.
# Inhibition screening of pyrethroid inhibitors and IC50 calculations carried out according Yunta et al. […]
# CYP6P3 = details: Incubation time 2h; mean ± SD; ref [38], [41]; cited from earlier work
Structure (SMILES),IC50 (CYP6Z3),% Insecticide depletion CYP6P3 (CYP6P3)
"Cc1c(COC(=O)[C@@H]2[C@H](/C=C(\Cl)C(F)(F)F)C2(C)C)cccc1-c1ccccc1 (racemic) [Bifenthrin, bifenthrin]",17 µM,76.7 ± 0.3%
"CC1(C)[C@H](C(=O)O[C@H](C#N)c2cccc(Oc3ccccc3)c2)[C@@H]1/C=C(\Cl)C(F)(F)F (racemic) [λ-Cyhalothrin, λ-cyhalothrin]",3.3 µM,83.3 ± 15.4%
"CC1(C)[C@H](C(=O)O[C@H](C#N)c2cccc(Oc3ccccc3)c2)[C@@H]1C=C(Br)Br [Deltamethrin, deltamethrin]",3.4 µM,
"CCOc1ccc(C(C)(C)COCc2cccc(Oc3ccccc3)c2)cc1 [Etofenprox, etofenprox]",4.8 µM,99.8 ± 0.3%
"CC1(C)C(C=C(Cl)Cl)C1C(=O)OCc1cccc(Oc2ccccc2)c1 (stereo not drawn) [Permethrin, permethrin]",3.7 µM,100.0 ± 0.0%
